# Assay results reported in paper PMC11845477, “Exploring the principles behind antibiotics with limited resistance” (Nature Communications, 2025).
# Where a SMILES comes first, the peptide text is derived from it. Bridges are numbered along the chain shown (N, C = ends). [ ]: non-standard residue; d: D form. The star is where a group is joined. X1 = NC[C@@H](CC(=O)*)c1cccc(Cl)c1; Dab = NCC[C@H](N)C(=O)O; Dap = NC[C@H](N)C(=O)O
# Tested on: K. pneumoniae ATCC 10031 (SEN) and K. pneumoniae ATCC 700603 (MDR)
# Assay: Adaptive laboratory evolution (ALE), relative MIC of evolved lines
# Format: cell-based, Klebsiella pneumoniae
# Procedure, shortened: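 Ten parallel populations per antibiotic–ancestor pair were evolved in MHB at 37 °C, starting near 50% growth-inhibiting drug. Every 72 h they were passaged into 0.5–2.5× increasing concentrations, keeping the highest-drug well with OD600 > 0.2.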
# [1] = KP-MDR (Klebsiella pneumoniae ATCC 700603), evolved line 4
# [2] = KP-MDR (Klebsiella pneumoniae ATCC 700603), evolved line 6
# [3] = KP-MDR (Klebsiella pneumoniae ATCC 700603), evolved line 8
# [4] = KP-MDR (Klebsiella pneumoniae ATCC 700603), evolved line 10
# [5] = KP-SEN (Klebsiella pneumoniae ATCC 10031), evolved line 1
# [6] = KP-SEN (Klebsiella pneumoniae ATCC 10031), evolved line 3
# [7] = KP-SEN (Klebsiella pneumoniae ATCC 10031), evolved line 4
# [8] = KP-SEN (Klebsiella pneumoniae ATCC 10031), evolved line 6
# [9] = KP-SEN (Klebsiella pneumoniae ATCC 10031), evolved line 10
smiles,measurement,setting,value
CC(C)C[C@@H]1NC(=O)[C@@H](Cc2ccccc2)NC(=O)[C@H](CCN)NC(=O)[C@@H](NC(=O)[C@H](CN)NC(=O)[C@@H](NC(=O)C[C@H](CN)c2cccc(Cl)c2)[C@@H](C)O)CCNC(=O)[C@H]([C@@H](C)O)NC(=O)[C@H](CCN)NC(=O)[C@H](CCN)NC1=O [SPR206] (X1-T[Dap][Dab][Dab][dF]L[Dab][Dab]T; lactam 3-C (inferred); N-terminus assumed),Relative MIC,"KP-MDR (Klebsiella pneumoniae ATCC 700603), evolved line 3",512
same,Relative MIC,[1],256
same,Relative MIC (log10),[1],2.408 log10
same,Relative MIC,"KP-MDR (Klebsiella pneumoniae ATCC 700603), evolved line 5",256
same,Relative MIC,[2],512
same,Relative MIC (log10),[2],2.709 log10
same,Relative MIC,"KP-MDR (Klebsiella pneumoniae ATCC 700603), evolved line 7",512
same,Relative MIC,[3],1024
same,Relative MIC (log10),[3],3.0103 log10
same,Relative MIC,"KP-MDR (Klebsiella pneumoniae ATCC 700603), evolved line 9",1024
same,Relative MIC,[4],512
same,Relative MIC (log10),[4],2.709 log10
same,MIC of evolved line,"KP-SEN (K. pneumoniae ATCC 10031), evolved line 1 of the given antibiotic",1020 µg/mL
same,Relative MIC,"KP-SEN (K. pneumoniae ATCC 10031), evolved line 1 vs ancestor",2048
same,MIC of evolved line,"KP-SEN (K. pneumoniae ATCC 10031), evolved line 2 of the given antibiotic",1 µg/mL
same,Relative MIC,"KP-SEN (K. pneumoniae ATCC 10031), evolved line 2 vs ancestor",2
same,MIC of evolved line,"KP-SEN (K. pneumoniae ATCC 10031), evolved line 3 of the given antibiotic",1020 µg/mL
same,Relative MIC,"KP-SEN (K. pneumoniae ATCC 10031), evolved line 3 vs ancestor",2048
same,MIC of evolved line,"KP-SEN (K. pneumoniae ATCC 10031), evolved line 4 of the given antibiotic",1020 µg/mL
same,Relative MIC,"KP-SEN (K. pneumoniae ATCC 10031), evolved line 4 vs ancestor",2048
same,MIC of evolved line,"KP-SEN (K. pneumoniae ATCC 10031), evolved line 6 of the given antibiotic",1020 µg/mL
same,Relative MIC,"KP-SEN (K. pneumoniae ATCC 10031), evolved line 6 vs ancestor",2048
same,MIC of evolved line,"KP-SEN (K. pneumoniae ATCC 10031), evolved line 7 of the given antibiotic",1 µg/mL
same,Relative MIC,"KP-SEN (K. pneumoniae ATCC 10031), evolved line 7 vs ancestor",2
same,MIC of evolved line,"KP-SEN (K. pneumoniae ATCC 10031), evolved line 8 of the given antibiotic",1 µg/mL
same,Relative MIC,"KP-SEN (K. pneumoniae ATCC 10031), evolved line 8 vs ancestor",2
same,MIC of evolved line,"KP-SEN (K. pneumoniae ATCC 10031), evolved line 10 of the given antibiotic",1020 µg/mL
same,Relative MIC,"KP-SEN (K. pneumoniae ATCC 10031), evolved line 10 vs ancestor",2048
same,Relative MIC,[5],2048
same,Relative MIC (log10),[5],3.311 log10
same,Relative MIC,"KP-SEN (Klebsiella pneumoniae ATCC 10031), evolved line 2",2
same,Relative MIC,[6],2048
same,Relative MIC (log10),[6],3.311 log10
same,Relative MIC,[7],2048
same,Relative MIC (log10),[7],3.311 log10
same,Relative MIC,[8],2048
same,Relative MIC (log10),[8],3.311 log10
same,Relative MIC,"KP-SEN (Klebsiella pneumoniae ATCC 10031), evolved line 8",2
same,Relative MIC,[9],2048
same,Relative MIC (log10),[9],3.311 log10
same,Relative MIC,"KP-SEN, Klebsiella pneumoniae ATCC 10031, evolved line 7",2
same,Relative MIC,"Klebsiella pneumoniae ATCC 10031 (KP-SEN), evolved line 1",2048
same,Relative MIC,"Klebsiella pneumoniae ATCC 10031 (KP-SEN), evolved line 2",2
same,Relative MIC,"Klebsiella pneumoniae ATCC 10031 (KP-SEN), evolved line 3",2048
same,Relative MIC,"Klebsiella pneumoniae ATCC 10031 (KP-SEN), evolved line 4",2048
same,Relative MIC,"Klebsiella pneumoniae ATCC 10031 (KP-SEN), evolved line 6",2048
same,Relative MIC,"Klebsiella pneumoniae ATCC 10031 (KP-SEN), evolved line 7",2
same,Relative MIC,"Klebsiella pneumoniae ATCC 10031 (KP-SEN), evolved line 8",2
same,Relative MIC,"Klebsiella pneumoniae ATCC 10031 (KP-SEN), evolved line 10",2048
same,Relative MIC,"Klebsiella pneumoniae ATCC 700603 (KP-MDR), evolved line 1",256
same,Relative MIC,"Klebsiella pneumoniae ATCC 700603 (KP-MDR), evolved line 2",1024
same,Relative MIC,"Klebsiella pneumoniae ATCC 700603 (KP-MDR), evolved line 3",512
same,Relative MIC,"Klebsiella pneumoniae ATCC 700603 (KP-MDR), evolved line 4",256
same,Relative MIC,"Klebsiella pneumoniae ATCC 700603 (KP-MDR), evolved line 5",256
same,Relative MIC,"Klebsiella pneumoniae ATCC 700603 (KP-MDR), evolved line 6",512
same,Relative MIC,"Klebsiella pneumoniae ATCC 700603 (KP-MDR), evolved line 7",512
same,Relative MIC,"Klebsiella pneumoniae ATCC 700603 (KP-MDR), evolved line 8",1024
same,Relative MIC,"Klebsiella pneumoniae ATCC 700603 (KP-MDR), evolved line 9",1024
same,Relative MIC,"Klebsiella pneumoniae ATCC 700603 (KP-MDR), evolved line 10",512
